Data taken from patent publication US9757404B2, “Combination comprising an omega-3 fatty acid composition and an SGLT2 inhibitor” (AstraZeneca AB, priority 2014, dated 2017).

Key:
[1] = tested on: diet-induced obese mouse model of fatty liver disease and NASH (DIO-NASH); assay: Mouse DIO-NASH model, 6 weeks treatment, hepatic pathology score (Example 3); format: in vivo, C57Bl/6J male mice; details: DIO-NASH mice; for NAFLD activity score, post-hoc test comparing the control group with the other groups (FIG. 1): Kruskal-Wallis p <0.01; for NAFLD activity score, post-hoc test comparing the control group with the other groups (FIG. 1) / fibrosis stage, Kruskal-Wallis test vs vehicle control (FIG. 2): p<0.05 regarded as significant; for fibrosis stage, Kruskal-Wallis test vs vehicle control (FIG. 2): p=0.4
From the text: Effect of SGLT-2 Inhibitors and Epanova Alone or in Combination on Metabolic Parameters and Hepatic Pathology Score in a Mouse DIO-NASH Model
Determine the effect of 6 weeks treatment with the SGLT2 inhibitors dapagliflozin, ipragliflozin and canagliflozin and the Omega-3 compound Epanova alone or in combination on NAFLD Activity Score (NAS) including fibrosis stage (post versus pre-treatment) in a diet-induced obese mouse model of fatty liver disease and NASH (DIO-NASH).
At 5 weeks of age, C57Bl/6J male mice are purchased from JanVier, France. During the acclimatization and diet-induction period, the mice are group housed five per cage under a 12:12 light dark cycle (lights on from 0400-1600 h) at controlled temperature conditions (22±1° C.; 50±10% relative humidity). Throughout the study period, the mice have ad libitum access to NASH diet (DIO-NASH) (D09100301, Research Diet) (40% fat (18% trans-fat)), 40% carbohydrates (20% fructose) and 2% cholesterol). The animals are kept on the diet for 28 weeks before experimentation. In addition, a sub-set of animals are given normal chow (Altromin 1324, Brogaarden) to be included as a lean control group (LEAN-CHOW). During post-OP recovery and study period, animals will be single-housed. BW will be recorded once daily during the study period. 24 h food and water intake will be recorded once weekly during the study period.
During the DIO-NASH diet-induction period, BW will be monitored once monthly. After 25 weeks of diet-induction, a liver biopsy will be obtained for hepatic progression of fibrosis and steatosis evaluated by histochemical analysis, and subsequently NAFLD Activity Score including fibrosis stage and optional gene expression analysis (see below). At day −6, animals are stratified into treatment groups according to levels of fibrosis (% collagen) followed by randomization based on 1) liver fibrosis and 2) BW. In addition, liver steatosis (% lipid) will be analyzed. At day −5, animals are EchoMRI scanned for body composition analysis.
Dosing volume is 5-20 ml/kg (TBD). Route of administration is per oral (PO) dosing by gavage. Dosing frequency will be once daily (QD). Day 0 is the first day of dosing. Animals are dosed with compound(s) and vehicle between 2-4 PM. Animals are dosed for 42 days. Last dose will be administered the day before termination (study day 41).
A liver pre-biopsy and terminal liver tissue from the left lateral lobe will be collected for NAS and assessment of fibrosis stage by use of clinical criteria outlined by Kleiner and colleagues (Design and validation of a histological scoring system for nonalcoholic fatty liver disease, Kleiner et al, Hepatology 41; 2005). The NAS is the sum of steatosis, lobular inflammation and hepatocellular ballooning scores:
To assess hepatic steatosis, ballooning degeneration, fibrosis and inflammation sections are stained with H&E, Sirius Red, CK18 (ballooning) and Galectin-3 (macrophages), respectively) followed by analysis with Visiomorph software (Visiopharm, Copenhagen, Denmark). Biopsy assessment of hepatic steatosis, fibrosis or inflammation will be described as percentage of total area using a protocol designed for the specific purpose.
Results are presented as mean±SEM (standard error of the mean) unless otherwise stated. Statistical evaluation of the data is carried out using Student's unpaired t-test or two-way ANOVA for comparison of LEAN-CHOW control versus DIO-NASH Vehicle. For comparison of DIO-NASH groups, one-way and two-way ANOVA are being applied where appropriate. Post-hoc analysis (Dunnett/Bonferroni) in cases with statistical significance is performed (p<0.05 considered significant).

[2] = tested on: VCU (Virginia Commonwealth University) NASH mouse model; assay: VCU NASH mouse model, 4 weeks treatment, liver histology (Example 4); format: in vivo; details: VCU NASH mice, 4 weeks daily gavage; dapagliflozin 1 mg/kg/d, Epanova 600 mg/kg/d
Procedure: A further pre-clinical mouse study was carried out according to the Experimental plan described below:
Model: VCU (Virginia Commonwealth University) NASH mouse model; inbred C57bI6J/×129SI/SvlmJ given high fat, cholesterol, fructose and glucose diet for 16 weeks before starting pharmacological treatment.
Treatment: drugs will be administered by daily gavage. Gavage volume will not exceed 3 mL/Kg. vehicles will be olive oil and water. Epanova and dapagliflozin will be administered by daily gavage in one syringe.
Run-in: 16 weeks in high fat, cholesterol, fructose and glucose diet one week with vehicle gavage.
T=0 weeks: the mice will be matched based on body weight. The mice will be divided into 4 groups of 12 animals. Vehicle gavage for one week before commencing active treatment for 4 weeks.

two mouse models of NASH = assay: Overall summary of the two pre-clinical NASH mouse studies; format: in vivo
From the text: We have investigated the effect of Epanova, dapagliflozin and the combination of the two components in two pre-clinical studies and a human clinical study, described in the Examples herein.
In the NASH mouse studies included in the present application, no changes in body weight, glucose or insulin levels or liver fat were observed, however the NASH mouse models used were not diabetic, but were obese and insulin resistant.

diabetic population = details: cited from earlier work
human SGLT2 (hSGLT2) = human SGLT2 (hSGLT2) (Homo sapiens, UniProt P31639); details: stated property, no value given; cited from earlier work
[3] = 6 weeks QD PO, dapagliflozin 1 mg/kg, Epanova 600 mg/kg, vs vehicle

Sequence of human SGLT2 (hSGLT2) (P31639 whole entry): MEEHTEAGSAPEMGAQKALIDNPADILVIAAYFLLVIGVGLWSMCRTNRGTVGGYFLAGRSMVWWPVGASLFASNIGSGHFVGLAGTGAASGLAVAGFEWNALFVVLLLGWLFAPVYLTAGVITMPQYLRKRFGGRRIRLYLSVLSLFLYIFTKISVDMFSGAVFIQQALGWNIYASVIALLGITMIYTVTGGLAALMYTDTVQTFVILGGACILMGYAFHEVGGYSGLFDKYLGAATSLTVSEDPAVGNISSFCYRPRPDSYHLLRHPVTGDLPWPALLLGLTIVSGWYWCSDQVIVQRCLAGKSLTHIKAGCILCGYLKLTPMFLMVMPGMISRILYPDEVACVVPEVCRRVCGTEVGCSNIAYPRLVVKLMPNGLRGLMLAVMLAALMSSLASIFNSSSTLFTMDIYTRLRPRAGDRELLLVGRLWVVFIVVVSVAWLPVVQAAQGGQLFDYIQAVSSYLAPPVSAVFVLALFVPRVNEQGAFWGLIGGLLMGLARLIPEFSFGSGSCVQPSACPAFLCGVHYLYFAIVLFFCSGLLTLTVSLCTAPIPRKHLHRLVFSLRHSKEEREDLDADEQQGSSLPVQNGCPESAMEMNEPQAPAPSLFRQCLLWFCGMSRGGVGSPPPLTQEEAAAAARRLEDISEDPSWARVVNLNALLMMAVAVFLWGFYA

Row | SMILES | NAFLD activity score, post-hoc test comparing the control group with the other groups (FIG. 1) [1] | fibrosis stage, Kruskal-Wallis test vs vehicle control (FIG. 2) [1] | NAFLD activity scores at the end of the study (primary effect variable) [1, 3] | fibrosis stage at the end of the study (primary effect variable) [1, 3] | fibrosis, comparing baseline and end-of study biopsies ([1]; 6 weeks QD PO, post versus pre-treatment) | overall effect on histology (NAFLD Activity Score, fibrosis stage) [2] | effect of treatment on NASH (two mouse models of NASH) | liver fat content (diabetic population; diabetic population / diabetic patients) | body fat content (diabetic population; published studies (Kabir et al; Bolinder et al)) | selectivity for SGLT2 relative to SGLT1 (human SGLT2 (hSGLT2))
1 | Cc1ccc([C@@H]2O[C@H](CO)[C@@H](O)[C@H](O)[C@H]2O)cc1Cc1ccc(-c2ccc(F)cc2)s1 [Canagliflozin, canagliflozin] | not significant | non-significant | – | – | – | – | – | – | – | –
2 | CCOc1ccc(Cc2cc([C@@H]3O[C@H](CO)[C@@H](O)[C@H](O)[C@H]3O)ccc2Cl)cc1 [Dapagliflozin, dapagliflozin] | not significant | non-significant | No effects | No effects | reduced fibrosis | no effect | did not show any effect | tend to reduce liver fat content | reduce body fat content | High selectivity for SGLT2
3 | OC[C@H]1O[C@@H](c2ccc(F)c(Cc3cc4ccccc4s3)c2)[C@H](O)[C@@H](O)[C@@H]1O [Ipragliflozin, ipragliflozin] | not significant | non-significant | – | – | – | – | – | – | – | –
